# According to patent publication US8808746B2, “Sustained-release microspheres and methods of making and using same” (Fresenius Kabi USA, LLC, priority 2004, dated 2014):
# Test: pH versus accelerated stability of octreotide acetate solutions (HPLC)
# Type: physicochemical
# Conditions: 70° C.
# Procedure: For this study, 0.2 mg/mL octreotide acetate solutions in different pH buffers (buffer ionic strength=˜50 mM) were incubated at 70° C. At various designated times, the concentration of octreotide was determined using HPLC. The degradation rate versus time (Kobs) was calculated and plotted.
# [1] = pH 4.0, Arginine-Acetate, 0 hours
# [2] = pH 4.0, Arginine-Acetate, 24 hours
# [3] = pH 4.0, Arginine-Acetate, 48 hours
# [4] = pH 4.0, Arginine-Acetate, 69 hours
# [5] = pH 5.0, Arginine-Acetate, 0 hours
# [6] = pH 5.0, Arginine-Acetate, 24 hours
# [7] = pH 5.0, Arginine-Acetate, 48 hours
# [8] = pH 5.0, Arginine-Acetate, 69 hours
compound,measurement,setting,value
"C[C@@H](O)[C@@H]1NC(=O)[C@H](CCCCN)NC(=O)[C@@H](Cc2c[nH]c3ccccc23)NC(=O)[C@H](Cc2ccccc2)NC(=O)[C@@H](NC(=O)[C@H](N)Cc2ccccc2)CSSC[C@@H](C(=O)N[C@H](CO)[C@@H](C)O)NC1=O [Octreotide, octreotide acetate]",stability in solution,between a pH of 3.0 and 5.0,relatively stable
same,Octreotide Assay,"pH 2.0, Glycine-HCl, 0 hours",0.1965 mg/mL
same,Octreotide Assay (% Stability),"pH 2.0, Glycine-HCl, 0 hours",(100.00) %
same,Octreotide Assay,"pH 2.0, Glycine-HCl, 24 hours",0.1651 mg/mL
same,Octreotide Assay (% Stability),"pH 2.0, Glycine-HCl, 24 hours",(84.02) %
same,Octreotide Assay,"pH 2.0, Glycine-HCl, 48 hours",0.1425 mg/mL
same,Octreotide Assay (% Stability),"pH 2.0, Glycine-HCl, 48 hours",(72.52) %
same,Octreotide Assay,"pH 2.0, Glycine-HCl, 69 hours",0.1303 mg/mL
same,Octreotide Assay (% Stability),"pH 2.0, Glycine-HCl, 69 hours",(66.31) %
same,Octreotide Assay,"pH 3.0, Glycine-HCl, 0 hours",0.2214 mg/mL
same,Octreotide Assay (% Stability),"pH 3.0, Glycine-HCl, 0 hours",(100.00) %
same,Octreotide Assay,"pH 3.0, Glycine-HCl, 24 hours",0.2136 mg/mL
same,Octreotide Assay (% Stability),"pH 3.0, Glycine-HCl, 24 hours",(96.48) %
same,Octreotide Assay,"pH 3.0, Glycine-HCl, 48 hours",0.2050 mg/mL
same,Octreotide Assay (% Stability),"pH 3.0, Glycine-HCl, 48 hours",(92.59) %
same,Octreotide Assay,"pH 3.0, Glycine-HCl, 69 hours",0.2004 mg/mL
same,Octreotide Assay (% Stability),"pH 3.0, Glycine-HCl, 69 hours",(90.51) %
same,Octreotide Assay,[1],0.1911 mg/mL
same,Octreotide Assay (% Stability),[1],(100.00) %
same,Octreotide Assay,[2],0.1860 mg/mL
same,Octreotide Assay (% Stability),[2],(97.33) %
same,Octreotide Assay,[3],0.1784 mg/mL
same,Octreotide Assay (% Stability),[3],(93.35) %
same,Octreotide Assay,[4],0.1741 mg/mL
same,Octreotide Assay (% Stability),[4],(91.10) %
same,Octreotide Assay,[5],0.2027 mg/mL
same,Octreotide Assay (% Stability),[5],(100.00) %
same,Octreotide Assay,[6],0.1975 mg/mL
same,Octreotide Assay (% Stability),[6],(97.43) %
same,Octreotide Assay,[7],0.1848 mg/mL
same,Octreotide Assay (% Stability),[7],(91.17) %
same,Octreotide Assay,[8],0.1819 mg/mL
same,Octreotide Assay (% Stability),[8],(89.74) %
same,Octreotide Assay,"pH 6.0, Phosphate, 0 hours",0.1934 mg/mL
same,Octreotide Assay (% Stability),"pH 6.0, Phosphate, 0 hours",(100.00) %
same,Octreotide Assay,"pH 6.0, Phosphate, 24 hours",0.1738 mg/mL
same,Octreotide Assay (% Stability),"pH 6.0, Phosphate, 24 hours",(89.87) %
same,Octreotide Assay,"pH 6.0, Phosphate, 48 hours",0.1434 mg/mL
same,Octreotide Assay (% Stability),"pH 6.0, Phosphate, 48 hours",(74.15) %
same,Octreotide Assay,"pH 6.0, Phosphate, 69 hours",0.1276 mg/mL
same,Octreotide Assay (% Stability),"pH 6.0, Phosphate, 69 hours",(65.98) %
same,Octreotide Assay,"pH 7.0, Phosphate, 0 hours",0.2047 mg/mL
same,Octreotide Assay (% Stability),"pH 7.0, Phosphate, 0 hours",(100.00) %
same,Octreotide Assay,"pH 7.0, Phosphate, 24 hours",0.1638 mg/mL
same,Octreotide Assay (% Stability),"pH 7.0, Phosphate, 24 hours",(80.02) %
same,Octreotide Assay,"pH 7.0, Phosphate, 48 hours",0.1247 mg/mL
same,Octreotide Assay (% Stability),"pH 7.0, Phosphate, 48 hours",(60.92) %
same,Octreotide Assay,"pH 7.0, Phosphate, 69 hours",0.1056 mg/mL
same,Octreotide Assay (% Stability),"pH 7.0, Phosphate, 69 hours",(51.59) %
same,Octreotide Assay,"pH 8.0, Phosphate, 0 hours",0.1906 mg/mL
same,Octreotide Assay (% Stability),"pH 8.0, Phosphate, 0 hours",(100.00) %
same,Octreotide Assay,"pH 8.0, Phosphate, 24 hours",0.0793 mg/mL
same,Octreotide Assay (% Stability),"pH 8.0, Phosphate, 24 hours",(41.61) %
same,Octreotide Assay,"pH 8.0, Phosphate, 48 hours",0.0369 mg/mL
same,Octreotide Assay (% Stability),"pH 8.0, Phosphate, 48 hours",(19.36) %
same,Octreotide Assay,"pH 8.0, Phosphate, 69 hours",0.0280 mg/mL
same,Octreotide Assay (% Stability),"pH 8.0, Phosphate, 69 hours",(14.69) %
